Experiments:
COL1A2 [1] = assay: COL1A2 expression in mouse skin fibroblasts by fluorescent quantitative PCR; format: cell-based, C57BL/6 mice; details: for expression of COL1A2 in the fibroblasts relative to blank control group: mouse skin fibroblasts
Excerpt: (§1) Experimental method: skin tissues were taken from the backs of newborn C57BL/6 mice, and fibroblasts obtained from mice were isolated and purified. […] The third-generation of fibroblasts were taken for experiments.
Experimental method: the COL1A2 level was detected using fluorescent quantitative polymerase chain reaction (PCR) method. The experiment was divided into two major groups: a blank control group and a sodium 4-[(1E)-2-[[(4-chlorophenyl)methyl]sulfonyl]alkyne]-benzoate treatment group. In the blank control group, the fibroblasts were cultured in a normal medium; and in the sodium 4-[(1E)-2-[[(4-chlorophenyl)methyl]sulfonyl]alkyne]-benzoate treatment group, the fibroblasts were treated with five media containing different concentrations (0.1 μM, […], 1 μM, 3 μM, and 6 μM) of sodium 4-[(1E)-2-[[(4-chlorophenyl)methyl]sulfonyl]alkyne]-benzoate (i.e., normal medium added with sodium 4-[(1E)-2-[[(4-chlorophenyl)methyl]sulfonyl]alkyne]-benzoate at the aforementioned concentrations) for 24 h. The specific process was as follows. The third-generation of fibroblasts was uniformly inoculated into a six-well plate. In the blank control group, the fibroblasts were cultured in the normal medium, and in the sodium 4-[(1E)-2-[[(4-chlorophenyl)methyl]sulfonyl]alkyne]-benzoate treatment group, the fibroblasts were cultured in media containing sodium 4-[(1E)-2-[[(4-chlorophenyl)methyl]sulfonyl]alkyne]-benzoate at the corresponding concentrations. After 24 h of culture, total RNA was extracted from the fibroblasts and subjected to reverse transcription to obtain complementary deoxyribonucleic acid (cDNA), which was then subjected to fluorescent quantitative PCR. After the end of reaction, an amplification curve and a melting curve of the fluorescent quantitative PCR were confirmed, with glyceraldehyde-3-phosphate dehydrogenase (GAPDH) as an internal reference gene. The results were analyzed using the internationally accepted 2^−ΔΔCt method.
Total RNA of fibroblasts was extracted using standard laboratory RNA extraction method and stored at −80° C. for later use. The extracted total RNA of fibroblasts was used as a template to synthesize cDNA by using the standard laboratory method, and the synthesized cDNA was stored at −20° C. for later use.
Fluorescent quantitative PCR system: 10 μL of qPCR SYBR Green Master Mix, 2 μL of 2 μM upstream primer, 2 μL of 2 μM downstream primer, and 1000 ng of cDNA template, a total volume of 20 μL by supplementing with diethyl pyrocarbonate (DEPC)-treated water.
Reaction conditions: pre-denaturation at 95° C. for 5 min, followed by 40 cycles of 10 sec at 95° C., 20 sec at 52.9° C., and 20 sec at 72° C. After the end of reaction, the melting curve was analyzed.
Experimental method: the COL1A2 level was detected using fluorescent quantitative PCR method. The experiment was divided into two major groups: a blank control group and a sodium 4-[(1E)-2-[[(4-chlorophenyl)methyl]sulfonyl]alkyne]-benzoate treatment group. In the blank control group, the fibroblasts were cultured in a normal medium; and in the sodium 4-[(1E)-2-[[(4-chlorophenyl)methyl]sulfonyl]alkyne]-benzoate treatment group, the fibroblasts were cultured in a medium containing 0.5 μM of sodium 4-[(1E)-2-[[(4-chlorophenyl)methyl]sulfonyl]alkyne]-benzoate, with incubation times of 24 h, 48 h, and 72 h. The specific process was as follows. The third-generation of fibroblasts was uniformly inoculated into a six-well plate. In the blank control group, the fibroblasts were cultured in a normal medium, and in the sodium 4-[(1E)-2-[[(4-chlorophenyl)methyl]sulfonyl]alkyne]-benzoate treatment group, the fibroblasts were cultured in a medium containing 0.5 μM of sodium 4-[(1E)-2-[[(4-chlorophenyl)methyl]sulfonyl]alkyne]-benzoate (i.e., normal medium containing 0.5μ M of sodium 4-[(1E)-2-[[(4-chlorophenyl)methyl]sulfonyl]alkyne]-benzoate). […]

[2] = system: collagen fiber content in skin; assay: Collagen fiber content in treated back skin of mice (Masson staining); format: in vivo, C57BL/6 mice
Procedure: (§2) Sodium 4-[(1E)-2-[[(4-chlorophenyl)methyl]sulfonyl]alkyne]-benzoate was dissolved in water to prepare an aqueous solution of sodium 4-[(1E)-2-[[(4-chlorophenyl)methyl]sulfonyl]alkyne]-benzoate (i.e., an anti-aging preparation for skin). Six healthy C57BL/6 mice aged 6-8 weeks with similar body sizes were selected, and the hair on the backs of the mice was removed gently and harmlessly to expose a similar area of skin on the back of each mouse. The six mice were divided into two groups equally. The same volume of pure water and aqueous solutions containing 0.5 of sodium 4-[(1E)-2-[[(4-chlorophenyl)methyl]sulfonyl]alkyne]-benzoate were applied, respectively, to the hair-removed skin on the backs of the mice once a day for 30 consecutive days.
Experimental method: after continuously applying an aqueous solution containing 0.5 μM of sodium 4-[(1E)-2-[[(4-chlorophenyl)methyl]sulfonyl]alkyne]-benzoate or pure water as a blank control to the backs of mice for 30 days, the mice were euthanized for cutting the skin from the treated areas, and the Masson staining method was used for detecting the collagen fiber content in the skin. […]

dermal thickness in skin = assay: Dermal thickness in treated back skin of mice (HE staining); format: in vivo, C57BL/6 mice
Procedure: as §2
Experimental method: after continuously applying an aqueous solution containing 0.5 μM of sodium 4-[(1E)-2-[[(4-chlorophenyl)methyl]sulfonyl]alkyne]-benzoate or pure water as a blank control to the backs of mice for 30 days, the mice were euthanized for cutting the skin from the treated areas, and hematoxylin-eosin (HE) staining method was used for detecting the dermal thickness in the skin. Specifically, the tissues were fixed, dehydrated with a sucrose solution, embedded in OCT, sliced, stained with hematoxylin, counterstained blue with tap water, stained with eosin, dehydrated and cleared, and then mounted.

COL1A2 [3] = assay: COL1A2 protein level in treated back skin of mice (Westernblot); format: in vivo, C57BL/6 mice; details: aqueous solution 0.5 μM applied to hair-removed back skin once a day for 30 days, P=0.0378
Procedure: as §2, with “The same volume of pure water and aqueous solutions containing 0.5 of sodium 4-[(1E)-2-[[(4-chlorophenyl)methyl]sulfonyl]alkyne]-benzoate were applied, respectively, to the hair-removed skin on the backs of the mice once a day for 30 consecutive days.” left out
(§3) Experimental method: after continuously applying the same volume of aqueous solutions containing 0.5 μM of sodium 4-[(1E)-2-[[(4-chlorophenyl)methyl]sulfonyl]alkyne]-benzoate or pure water as a blank control to the backs of mice for 30 days, the mice were euthanized for cutting the skin from the treated areas. The Westernblot method was employed to detect the protein level of COL1A2, and the fluorescent quantitative PCR method was employed to detect the mRNA level of COL1A2.
The specific process for the Westernblot experiment was as follows. […] After fluorescent secondary antibodies were incubated, the samples were visualized using an infrared fluorescence scanning imaging system. […]

COL1A2 [4] = assay: COL1A2 mRNA level in treated back skin of mice (fluorescent quantitative PCR); format: in vivo, C57BL/6 mice; details: aqueous solution 0.5 μM applied to hair-removed back skin once a day for 30 days, P=0.0178
Procedure: as §2, with “The same volume of pure water and aqueous solutions containing 0.5 of sodium 4-[(1E)-2-[[(4-chlorophenyl)methyl]sulfonyl]alkyne]-benzoate were applied, respectively, to the hair-removed skin on the backs of the mice once a day for 30 consecutive days.” left out
as §3
Fluorescence quantitative PCR experiment was performed specifically as follows. Total RNA was extracted from skin tissues, and subjected to reverse transcription to obtain cDNA, which was then subjected to fluorescence quantitative PCR. After the end of reaction, an amplification curve and a melting curve of the fluorescent quantitative PCR were confirmed, with GAPDH as an internal reference gene. […]

fibroblasts = assay: Cell viability of fibroblasts after administration (status photographed under a microscope); format: cell-based, C57BL/6 mice; details: 0.5 μM, 24 h and 48 h
Procedure: as §1
Experimental method: the third-generation of fibroblasts was uniformly inoculated into a six-well plate. In the blank control group, the fibroblasts were cultured in a normal medium, and in the sodium 4-[(1E)-2-[[(4-chlorophenyl)methyl]sulfonyl]alkyne]-benzoate treatment group, the fibroblasts were cultured in a medium containing 0.5 μM of sodium 4-[(1E)-2-[[(4-chlorophenyl)methyl]sulfonyl]alkyne]-benzoate (i.e., normal medium containing 0.5 μM of sodium 4-[(1E)-2-[[(4-chlorophenyl)methyl]sulfonyl]alkyne]-benzoate). After culturing for 24 h and 48 h, respectively, the status of fibroblasts was photographed under a microscope.

MMP-13 = MMP-13 mRNA level in treated back skin of mice (fluorescent quantitative PCR); format: in vivo, C57BL/6 mice; details: aqueous solution 0.5 M (so in the source) applied to hair-removed back skin once a day for 30 days, P=0.0171
Procedure: as §2, with “The same volume of pure water and aqueous solutions containing 0.5 of sodium 4-[(1E)-2-[[(4-chlorophenyl)methyl]sulfonyl]alkyne]-benzoate were applied, respectively, to the hair-removed skin on the backs of the mice once a day for 30 consecutive days.” left out
Experimental method: after continuously applying an aqueous solution containing 0.5 M of sodium 4-[(1E)-2-[[(4-chlorophenyl)methyl]sulfonyl]alkyne]-benzoate or pure water as a blank control to the backs of mice for 30 days, the mice were euthanized for cutting the skin from the treated areas, and the fluorescent quantitative PCR method was used for detecting the mRNA level of MMP-13 in skin tissue. Specifically, total RNA was extracted from skin tissues, and subjected to reverse transcription to obtain cDNA, which was then subjected to fluorescence quantitative PCR. After the end of reaction, an amplification curve and a melting curve of the fluorescent quantitative PCR were confirmed, with GAPDH as an internal reference gene. The results were analyzed using the internationally accepted 2^−ΔΔCt method. […]

[5] = same effect verification as Examples 1 and 2

| Structure (SMILES) | increasing the expression of type I collagen (COL1A2) in cells, compared with the sodium salt (COL1A2 [1]; [5]) | increasing the collagen fiber content in the skin, compared with the sodium salt [2, 5] | increasing the dermal thickness in the skin, compared with the sodium salt (dermal thickness in skin; [5]) | expression of COL1A2 in the fibroblasts relative to blank control group (COL1A2 [1]; 0.5 μM, 24 h, P=0.0003) | expression of COL1A2 in fibroblasts with extension of incubation time (COL1A2 [1]; 0.5 μM, incubation time from 24 h to 72 h) | expression of COL1A2 in fibroblasts compared to the blank control group (COL1A2 [1]; 0.5 μM, incubation time of 72 h) | expression of COL1A2 in the fibroblasts relative to blank control group (COL1A2 [1]; 1 μM, 24 h, P<0.0001) | expression of COL1A2 in the fibroblasts (COL1A2 [1]; any other concentrations (0.1 μM, 3 μM, 6 μM), 24 h) | protein level of COL1A2 in skin, increase compared to pure water blank control group (COL1A2 [3]) | collagen fiber content in the skin, increase compared to pure water blank control group ([2]; aqueous solution 0.5 μM applied to hair-removed back skin once a day for 30 days, P=0.0010) | mRNA level of COL1A2 in skin, increase compared to pure water blank control group (COL1A2 [4]) | dermal thickness in the skin, increase compared to pure water blank control group (dermal thickness in skin; aqueous solution 0.5 μM applied to hair-removed back skin once a day for 30 days, P=0.0004) | viability / status of fibroblasts (fibroblasts) | mRNA level of MMP-13 in skin, decrease compared to pure water blank control group (MMP-13) |
| --- | --- | --- | --- | --- | --- | --- | --- | --- | --- | --- | --- | --- | --- | --- |
| O=C(O)c1ccc(/C=C/S(=O)(=O)Cc2ccc(Cl)cc2)cc1 | equivalent effects | equivalent effects | equivalent effects | – | – | – | – | – | – | – | – | – | – | – |
| O=C([O-])c1ccc(/C=C/S(=O)(=O)Cc2ccc(Cl)cc2)cc1.[Na+] | – | – | – | 1.613 times | decreases | no difference | 1.173 times | cannot increase the expression of COL1A2 | 4.024 times | 3.3904 times | 2.681 times | 2.9101 times | no adverse effects on viability of fibroblasts | 0.5124 times |

Source: patent US12251458B1, “Anti-aging preparation for skin and application thereof” (South China Normal University, priority 2023, dated 2025)
